In article PMC9822400, “The Lipophilic Purine Nucleoside—Tdp1 Inhibitor—Enhances DNA Damage Induced by Topotecan In Vitro and Potentiates the Antitumor Effect of Topotecan In Vivo” (Molecules, 2022):
“Also recorded” adds a separate entry of the source.

Legend:
[1] = biological target: T1, purified recombinant human Tdp1 (Homo sapiens, UniProt Q9NUW8); assay: Real-time detection of Tdp1 activity (removal of BHQ1 from a 5′-FAM 16-nt oligonucleotide, fluorescence); assay type: biochemical; details: for IC50: 1.5 nM Tdp1, 50 nM oligonucleotide, 25 °C, three independent experiments
T1 construct: made in house
Description: In this work, four natural nucleosides (1-4) and […] aromatic lipophilic derivatives of purine nucleosides (5a-f, 6a-d) were tested for Tdp1 activity. The used test system was based on the enzyme’s ability to remove Black Hole Quencher 1 (BHQ1) from the 3′ end of a 5′ FAM 16-nt oligonucleotide. As a result, an increase in FAM fluorescence was detected and the obtained kinetic curves were used to calculate the IC50 parameter (the concentration of the inhibitor at which the enzyme activity is reduced by half). We have found potent Tdp1 inhibitors with IC50 in the range from 0.3 to 7 μM (Table 1).
Purified human recombinant Tdp1 was prepared as described earlier. Real-time detection of Tdp1 activity was reported in our previous work. The approach consists of a fluorescence intensity measurement of the reaction of quencher removal from the fluorophore-quencher coupled DNA oligonucleotide catalyzed by Tdp1 in the presence of the inhibitor (the control samples contained 1% DMSO). The biosensor was single-stranded oligonucleotide (5′-[FAM] AAC GTC AGGGTC TTC C [BHQ]-3′) containing fluorophore at the 5′ end (5,6-FAM) and a Black Hole Quencher 1 (BHQ) at the 3′ end, and was synthesized in the Laboratory of nucleic acid chemistry at the Institute of Chemical Biology and Fundamental Medicine SB RAS, Novosibirsk, Russia. The reactions were incubated at a constant temperature 25 °C in a POLARstar OPTIMA fluorimeter, BMG LABTECH, GmbH, to measure fluorescence every 55 s (Ex485/Em520 nm) during the linear phase (here, the data are from 0 to 8 min). […] The IC50 values were determined using a six-point concentration response curve in three independent experiments and calculated using MARS Data Analysis 2.0 (BMG LABTECH).

[2] = Cell culture cytotoxicity assay (EZ4U colorimetric test); assay type: cell-based; details: human, HeLa cells
From the text: (§1) Tdp1 inhibitors are intended to be used in therapeutic cocktails to sensitize tumors to the action of anticancer Top1 poisons. […] To assess the toxicity of the compounds, their effect on the survival of the HeLa cell line (human cervical cancer) was studied using the colorimetric test of metabolic activity of cells EZ4U, which reflects the survival of cells in the presence of the studied compounds. The EZ4U assay is based on the ability of living cells to reduce the colorless tetrazolium salt XTT [sodium 3,3′-{1-(phenylamino)-carbonyl-3,4-tetrazolium) -bis(4-methoxy-6-nitro)-benzene sulfonic acid hydrate] to an orange water-soluble formazan product. This method was used to investigate the intrinsic cytotoxicity of promising inhibitors discovered in the course of this work, as well as the toxicity of their combination with Tpc.
(§2) Cytotoxicity of the compounds was examined on human cell lines HeLa using an EZ4U colorimetric test (Biomedica, Vienna, Austria). The HeLa cell line was obtained from the Russian Cell Culture Collection (RCCC) Institute of Cytology RAS, St. Petersburg, Russia. The cells were grown in DMEM/F12 medium (Gibco, Thermo Fisher Scientific, Waltham, MA, USA), with 1x GlutaMAX (Gibco, Thermo Fisher Scientific, Waltham, MA, USA), 50 IU/mL penicillin, 50 μg/mL streptomycin (MP Biomedicals), and in the presence of 10% fetal bovine serum (Biolot, Saint-Petersburg, Russia) in a 5% CO2 atmosphere. Since lipophilic nucleosides are soluble in DMSO, cells were grown in the presence of 1% DMSO in the control wells. After the formation of a 30–50% monolayer, the tested compounds were added to the medium, and the cell culture was monitored for 3 days. The values were normalized to their own control in each case. At least three independent experiments were carried out. The 50% cytotoxic concentration (CC50) was defined as the compound concentration that reduced the cell viability by 50% when compared to the untreated controls. The CC50 value was determined using OriginPro 8.6.0 software (OriginLab, Northampton, MA, USA). The measurements were carried out in three independent experiments.

human recombinant PARP1 = biological target: T2, human recombinant PARP1 (Homo sapiens, UniProt P09874); assay: PARP1 activity by inclusion of α-[32P]-NAD+ in poly(ADP-ribose); assay type: biochemical; details: in the presence of 1 mM compound; read-out: Residual activity of PARP1
T2 construct: made in house
Description: (§3) Since it has previously been shown that nucleoside derivatives can inhibit enzymes of the PARP family, we also checked whether the studied compounds were able to inhibit the enzymes PARP1 and PARP2. […] Thus, when using our compounds, one cannot expect side effects from PARP1/2.
(§4) Purified human recombinant PARP1/2 [65] and [^32P] NAD^+ [27] were prepared as described earlier. The activity of PARP1/2 was evaluated by the rate of incorporation of the radioactive label into the acid-insoluble reaction product—PAR as described previously.

human recombinant PARP2 = biological target: T3, human recombinant PARP2 (Homo sapiens, UniProt Q9UGN5); assay: PARP2 activity by inclusion of α-[32P]-NAD+ in poly(ADP-ribose); assay type: biochemical; details: in the presence of 1 mM compound; read-out: Residual activity of PARP2
T3 construct: made in house
Description: as §3, §4

HeLa cells [3] = assay: Effect of compounds on topotecan cytotoxicity (EZ4U test); assay type: cell-based, human; details: compound 10 μM in combination with Tpc
From the text: as §1
As already mentioned, we expected to increase the efficacy and/or reduce the dosage of Tpc with Tdp1 inhibitors. To do this, we studied the effect of nucleoside derivatives on Tpc cytotoxicity. […] We attribute this to the probable presence of protein targets other than Tdp1 in the cell.
as §2

HeLa cells [4] = assay: Alkaline Comet assay, accumulation of DNA damage; assay type: cell-based; details: for DNA in tail: Topotecan 10 μM alone (0 μM compound), 1 h
From the text: We studied the effect of Tdp1 inhibitors 5f and 6d on the accumulation of DNA damage by single-cell gel electrophoresis (Comet assay). […] This method has proven to be a simple, fast, and a quite sensitive way to detect DNA damage at the level of a single cell, allowing one to analyze almost any eukaryotic cell culture. Several analysis options allow one to visualize various types of DNA damage: single- and double-stranded breaks and alkaline-labile sites. This allows this method to be widely used in fundamental studies of DNA damage and repair and in testing the genotoxicity of new chemical and pharmaceutical drugs in vitro and in vivo [51, 52]. To study potential drugs, the alkaline version of the method (pH > 13) proposed by Singh and co-authors is widely used. This method allows the detection of all types of DNA damage with high sensitivity. In cells with a large amount of DNA damage, the structural organization and integrity of DNA are disrupted, which leads to its relaxation and/or fragmentation. As a result, cellular DNA in an electric field gives the observed objects the appearance of a “comet”.
Before studying the effect of Tdp1 inhibitors on the accumulation of DNA damage, it was necessary to find out how long the generation of DNA damage by Tpc and their repair take place in HeLa cells. To do this, cell culture was treated with Tpc at 1, 10, and 100 μM concentrations for 30 min, 1, 2, and 3 h and the level of damage to individual cells was monitored by Comet assay. It was shown that Tpc caused the greatest amount of damage after 30 minutes’ treatment. After this time, the repair systems began to correct these lesions and as a result, after 3 h most of them have been eliminated (Figure S9). […] The level of DNA damage at this point was enough to be detected, the data were reproducible, and can be evaluated by the Comet assay. The effect could be enhanced by the tested compounds without leading to cell death. It was important for us to see this enhancement in the presence of our compounds.
HeLa cell culture was grown in a 24-well plate to a concentration of 0.05 million/mL, then treated with the tested compounds and incubated for 1 h. To obtain a cell suspension, the cells were treated with trypsin (30 µL in each well for 5 min at 37 °C), and then 200 µL of PBS + 10% FBS were added to each well.
The resulting cell suspension (50 µL) was mixed with 250 µL of a 1% solution of molten low melting agarose (CertifiedTM LMAgarose; BIO-RAD), 250 µL of this mixture was transferred to the slides pre-coated with a 1% normal melting agarose (Agarose; Helicon), and left for several minutes at 4 °C to solidify. The resulting slides were incubated in a lysing solution (2.5 M NaCl, 100 mM EDTA, 10 mM Tris base, 1% Triton, 5% DMSO, pH 10.0) for an hour at 4 °C. Then the slides were immersed in an electrophoretic buffer (300 mM NaOH, 1 mM EDTA, pH > 13) for 45 min at 4 °C. Electrophoresis was performed at 20 V, 450 mA for 10 min while cooling on ice. After that, the slides were immersed 2 times for 5 min in 0.4 M Tris-HCl pH 7.5 solution for neutralization, washed twice with cold water, and stained with SYBR Green I (excitation maximum at 497 nm, emission maximum at 520 nm; Thermo Fisher Scientific KK).
The images were obtained using a CELENA © S digital microscope (Logos Biosystems, Inc., Annandale, VA, USA) and analyzed with Comet analysis software (Trevigen, Inc., Gaithersburg, MD, USA. In all experiments, 2 slides were evaluated for each sample by counting at least 200 cells on the glass. As a parameter for measuring the level of DNA damage, the median value of the percentage of DNA in the tail was chosen (% Tail DNA = 100 × the intensity of DNA fluorescence in the tail of the comet/the intensity of fluorescence of the total DNA of the comet).

T1 sequence (Q9NUW8 whole entry): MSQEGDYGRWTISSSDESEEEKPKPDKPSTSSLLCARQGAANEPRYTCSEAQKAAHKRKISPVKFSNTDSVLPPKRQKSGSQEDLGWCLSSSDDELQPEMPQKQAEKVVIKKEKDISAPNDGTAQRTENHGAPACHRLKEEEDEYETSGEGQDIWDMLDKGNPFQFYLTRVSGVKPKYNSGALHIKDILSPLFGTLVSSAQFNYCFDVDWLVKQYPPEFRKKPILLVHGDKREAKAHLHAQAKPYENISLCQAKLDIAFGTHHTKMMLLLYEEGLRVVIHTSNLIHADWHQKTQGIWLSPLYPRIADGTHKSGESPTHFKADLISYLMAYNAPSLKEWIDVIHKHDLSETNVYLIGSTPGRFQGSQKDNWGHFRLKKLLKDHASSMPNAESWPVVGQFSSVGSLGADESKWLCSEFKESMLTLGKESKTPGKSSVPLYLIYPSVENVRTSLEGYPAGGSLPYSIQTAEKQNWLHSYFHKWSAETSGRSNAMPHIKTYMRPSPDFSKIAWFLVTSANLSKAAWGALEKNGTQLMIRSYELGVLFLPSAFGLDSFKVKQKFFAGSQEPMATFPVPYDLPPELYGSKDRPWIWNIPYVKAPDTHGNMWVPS
T3 sequence (Q9UGN5 whole entry): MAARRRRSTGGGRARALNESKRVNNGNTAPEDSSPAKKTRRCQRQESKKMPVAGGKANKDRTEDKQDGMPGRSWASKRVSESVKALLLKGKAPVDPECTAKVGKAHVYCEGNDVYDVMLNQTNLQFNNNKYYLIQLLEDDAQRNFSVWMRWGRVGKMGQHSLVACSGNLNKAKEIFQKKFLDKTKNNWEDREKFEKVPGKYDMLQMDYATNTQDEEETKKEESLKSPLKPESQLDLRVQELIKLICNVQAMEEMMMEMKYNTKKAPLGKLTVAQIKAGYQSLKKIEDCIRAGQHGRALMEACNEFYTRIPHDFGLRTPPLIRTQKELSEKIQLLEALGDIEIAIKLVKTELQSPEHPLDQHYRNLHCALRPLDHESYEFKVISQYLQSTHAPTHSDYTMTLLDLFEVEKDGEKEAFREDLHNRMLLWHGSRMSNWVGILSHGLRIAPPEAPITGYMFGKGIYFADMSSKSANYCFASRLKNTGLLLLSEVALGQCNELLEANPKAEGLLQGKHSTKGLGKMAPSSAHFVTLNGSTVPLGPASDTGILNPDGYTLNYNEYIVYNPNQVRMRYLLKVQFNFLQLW
T2 sequence (P09874 whole entry): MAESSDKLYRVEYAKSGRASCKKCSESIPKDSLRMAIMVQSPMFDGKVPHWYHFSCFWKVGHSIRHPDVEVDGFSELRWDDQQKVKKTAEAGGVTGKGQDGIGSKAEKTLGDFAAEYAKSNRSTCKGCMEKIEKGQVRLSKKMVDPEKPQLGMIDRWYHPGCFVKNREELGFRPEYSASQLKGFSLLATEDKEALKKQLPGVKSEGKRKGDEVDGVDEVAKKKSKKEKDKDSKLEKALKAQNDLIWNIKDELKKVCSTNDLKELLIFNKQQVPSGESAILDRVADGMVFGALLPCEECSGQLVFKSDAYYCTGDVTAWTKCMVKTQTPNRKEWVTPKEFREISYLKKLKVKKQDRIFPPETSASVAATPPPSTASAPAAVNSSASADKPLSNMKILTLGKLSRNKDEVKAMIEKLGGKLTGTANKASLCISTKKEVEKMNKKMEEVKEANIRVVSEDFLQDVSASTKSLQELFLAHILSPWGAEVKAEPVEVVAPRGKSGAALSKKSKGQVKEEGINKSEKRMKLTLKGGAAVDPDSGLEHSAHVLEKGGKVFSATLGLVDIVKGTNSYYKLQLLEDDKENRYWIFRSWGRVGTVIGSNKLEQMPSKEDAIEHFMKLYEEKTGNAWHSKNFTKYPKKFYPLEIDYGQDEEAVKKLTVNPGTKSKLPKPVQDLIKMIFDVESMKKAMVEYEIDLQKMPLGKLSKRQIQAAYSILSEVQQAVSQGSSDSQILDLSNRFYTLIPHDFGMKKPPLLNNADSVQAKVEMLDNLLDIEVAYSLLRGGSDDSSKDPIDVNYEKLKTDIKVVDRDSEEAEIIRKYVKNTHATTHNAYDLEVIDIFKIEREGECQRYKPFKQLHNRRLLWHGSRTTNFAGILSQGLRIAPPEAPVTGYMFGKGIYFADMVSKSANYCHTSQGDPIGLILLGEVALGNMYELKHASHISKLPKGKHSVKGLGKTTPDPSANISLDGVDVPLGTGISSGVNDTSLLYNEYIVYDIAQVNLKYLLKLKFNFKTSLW

Row | SMILES | Tdp1 inhibition, in words [1] | IC50 [1] [µM] | CC50 at 3 days [2] [µM] | remaining activity at 1000 µM (human recombinant PARP1) [%] | remaining activity at 1000 µM (human recombinant PARP2) [%] | Enhancement of Tpc Cytotoxicity by 10 μM Compounds (HeLa cells [3]) [Times] | DNA in tail (HeLa cells [4]; series of compound 5f) [%] | DNA in tail (HeLa cells [4]; series of compound 6d) [%] | Time after which most DNA lesions have been eliminated (HeLa cells [4]; Tpc at 1, 10 and 100 μM) [h] | Treatment time with the greatest amount of DNA damage (HeLa cells [4]; Tpc at 1, 10 and 100 μM for 30 min, 1, 2 and 3 h) [min]
1 | OC[C@H]1O[C@@H](n2cnc3c(NCc4ccc(-c5ccccc5)cc4)ncnc32)[C@H](O)[C@@H]1O [5a] | practically did not lead to a decrease in Tdp1 activity; also recorded: did not inhibit Tdp1 | > 50 | > 100 | 112 ± 11 | 101 ± 24 | – | – | – | – | –
2 | OC[C@H]1O[C@@H](n2cnc3c(NCc4c5ccccc5cc5ccccc45)ncnc32)[C@H](O)[C@@H]1O [5c] | – | 22 ± 3 | 58 ± 2 | 92 ± 14 | 104 ± 16 | 2.2 | – | – | – | –
3 | OC[C@H]1O[C@@H](n2cnc3c(NCc4cc5ccc6cccc7ccc(c4)c5c67)ncnc32)[C@H](O)[C@@H]1O [5d] | practically did not lead to a decrease in Tdp1 activity; also recorded: did not inhibit Tdp1 | > 50 | 56 ± 10 | 88 ± 21 | 100 ± 15 | – | – | – | – | –
4 | O=C(OC[C@H]1O[C@@H](n2cnc3c(O)ncnc32)[C@H](OC(=O)c2ccccc2)[C@@H]1OC(=O)c1ccccc1)c1ccccc1 [6a, 2′,3′,5′-Tri-O-benzoylinosine] | – | 7 ± 1 | 58 ± 5 | 87 ± 10 | 96 ± 30 | 1.8 | – | – | – | –
5 | CC[C@@]1(O)C(=O)OCc2c1cc1n(c2=O)Cc2cc3c(CN(C)C)c(O)ccc3nc2-1 [Tpc, topotecan] | – | – | – | – | – | – | 35±5 | 39±1 | 3 | 30
6 | Nc1nc2c(ncn2[C@@H]2O[C@H](CO)[C@@H](O)[C@H]2O)c(=O)[nH]1 [compound 1, reference compound] | – | > 50 | – | 86 ± 5 | 91 ± 5 | – | – | – | – | –
7 | Nc1nc2c(ncn2[C@H]2C[C@H](O)[C@@H](CO)O2)c(=O)[nH]1 [compound 2, reference compound] | – | > 50 | – | 102 ± 11 | 87 ± 18 | – | – | – | – | –
8 | Nc1ncnc2c1ncn2[C@@H]1O[C@H](CO)[C@@H](O)[C@H]1O [compound 3, reference compound] | – | > 50 | – | 94 ± 9 | 95 ± 9 | – | – | – | – | –
9 | Nc1ncnc2c1ncn2[C@H]1C[C@H](O)[C@@H](CO)O1 [compound 4, reference compound] | – | > 50 | – | 84 ± 12 | 79 ± 15 | – | – | – | – | –
10 | OC[C@H]1O[C@@H](n2cnc3c(NC(c4ccccc4)(c4ccccc4)c4ccccc4)ncnc32)[C@H](O)[C@@H]1O [compound 5b] | practically did not lead to a decrease in Tdp1 activity | > 50 | 59.6 ± 0.6 | 99 ± 8 | 107 ± 9 | 1.7 | – | – | – | –
11 | O=C(OC[C@H]1O[C@@H](n2cnc3c(Cl)ncnc32)[C@H](OC(=O)c2ccccc2)[C@@H]1OC(=O)c1ccccc1)c1ccccc1 [compound 6b, 6-Chloro-2′,3′,5′-tri-O-benzoyl-β-D-ribofuranosylpurine riboside] | – | 2 ± 0.6 | 56 ± 26 | 86 ± 8 | 75 ± 16 | 1.9 | – | – | – | –
